# Legend:
# [1] = tested on: IPOHE (Ipomoea hederacea); experiment: Postemergence herbicidal evaluation; type: in vivo, (L.) Jacq.
# Procedure, shortened: (§1)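 Seedlings grown about two weeks in flats, sprayed, then kept under standard greenhouse care. Rated visually 4–5 weeks after treatment on a 0–9 scale (stand, vigour, malformation, size, chlorosis, overall appearance) relative to untreated control; repeat tests averaged.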
# [2] = tested on: ECHCG (Echinochloa crus-galli); experiment: Postemergence herbicidal evaluation; type: in vivo, (L.) Beau
# Procedure, shortened: as §1
# [3] = tested on: SETVI (Setaria viridis); experiment: Postemergence herbicidal evaluation; type: in vivo, (L.) Beau
# Procedure, shortened: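 Postemergence foliar spray on two-week-old seedlings, dose equivalent to about 0.0040 to 1.000 kg/ha. Ratings use a 0-9 visual scale relative to control at four to five weeks.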
# [4] = tested on: GLXMAW (Soybean, Williams); experiment: Postemergence herbicidal evaluation; type: in vivo, Glycine max, (L.) Merr. cv Williams
# Procedure, shortened: as §1
# [5] = tested on: ORYSAT (Rice, Tebonnet); experiment: Postemergence herbicidal evaluation; type: in vivo, Oryza sativa, (L.) Tebonnet
# Procedure, shortened: as §1
# [6] = tested on: TRZAWR (Wheat, Winter, cv Riband); experiment: Postemergence herbicidal evaluation; type: in vivo, Triticum aestivum
# Procedure, shortened: as §1
# [7] = tested on: ZEAMX (Corn, Field); experiment: Postemergence herbicidal evaluation; type: in vivo, Zea mays, L.
# Procedure, shortened: as §1
# [8] = tested on: ABUTH (Abutilon theophrasti); experiment: Preemergence herbicidal evaluation; type: in vivo, Medic.; conditions: preemergence, rated 4-5 weeks after treatment
# [9] = tested on: AMBEL (Ambrosia artemisifolia); experiment: Preemergence herbicidal evaluation; type: in vivo, L.; conditions: preemergence, rated 4-5 weeks after treatment
# Procedure, shortened: (§2)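 Visual 0–9 rating versus control (stand, vigor, malformation, size, chlorosis, overall appearance), scored four to five weeks post-treatment. Preemergence spray of aqueous acetone solution onto freshly seeded soil cups; plants grown under conventional greenhouse care.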
# [10] = tested on: CASOB (Cassia obtusifolia); experiment: Preemergence herbicidal evaluation; type: in vivo, L.; conditions: preemergence, rated 4-5 weeks after treatment
# Procedure, shortened: as §2
# [11] = tested on: CHEAL (Chenopodium album); experiment: Preemergence herbicidal evaluation; type: in vivo, L.; conditions: preemergence, rated 4-5 weeks after treatment
# Procedure, shortened: as §2
# [12] = tested on: GALAP (Galium aparine); experiment: Preemergence herbicidal evaluation; type: in vivo; conditions: preemergence, rated 4-5 weeks after treatment
# Procedure, shortened: as §2
# [13] = tested on: ECHCG (Echinochloa crus-galli); experiment: Preemergence herbicidal evaluation; type: in vivo, (L.) Beau; conditions: preemergence, rated 4-5 weeks after treatment
# Procedure, shortened: as §2
# [14] = tested on: SETVI (Setaria viridis); experiment: Preemergence herbicidal evaluation; type: in vivo, (L.) Beau; conditions: preemergence, rated 4-5 weeks after treatment
# Procedure, shortened: as §2
# [15] = tested on: ORYSAT (Rice, Tebonnet); experiment: Preemergence herbicidal evaluation; type: in vivo, Oryza sativa, (L.) Tebonnet; conditions: preemergence, rated 4-5 weeks after treatment
# [16] = tested on: TRZAWR (Wheat, Winter, cv Riband); experiment: Preemergence herbicidal evaluation; type: in vivo, Triticum aestivum; conditions: preemergence, rated 4-5 weeks after treatment
# Procedure, shortened: as §2
# [17] = tested on: ECHORC (Echinochloa oryzoides); experiment: Flooded paddy, preemergence weed control; type: in vivo, Echinochloa oryzoides (Ard.) Fritsch.; conditions: rated 3-4 weeks after treatment, 0-9 rating scale
# Procedure, shortened: (§3)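 Ratings of 0-9 reflect visual comparison with a control for stand, vigor, deformity, size, chlorosis and overall look. Propagules were placed in shallow silt loam (top 0.5 cm) under a continuous 1.5–3 cm flood and grown in the greenhouse.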
# [18] = tested on: CYPSE (Cyperus serotinus); experiment: Flooded paddy, preemergence weed control; type: in vivo, Rottb.; conditions: rated 3-4 weeks after treatment, 0-9 rating scale
# Procedure, shortened: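 Herbicidal effect was scored visually on a 0–9 scale against an untreated control 3–4 weeks after treatment. Compounds were applied preemergence as 50/50 v/v aqueous/acetone mixtures into flood water (1.5–3 cm deep over silt loam), at roughly 0.0080 to 0.1250 kg/ha active ingredient.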
# [19] = tested on: MOOVA (Monochoria vaginalis); experiment: Flooded paddy, preemergence weed control; type: in vivo, Presl.; conditions: rated 3-4 weeks after treatment, 0-9 rating scale
# Procedure, shortened: as §3
compound,measurement,setting,value
"Cc1cccnc1-c1nsc2ccc(-n3c(=O)cc(C(F)(F)F)n(C)c3=O)cc12 [Compound 19, 1-methyl-3-[3-(3-methyl-2-pyridyl)-1,2-benzisothiazol-5-yl]-6-(trifluoromethyl)uracil]","Postemergence herbicidal rating, IPOHE",[1]; rate 0.0320 kg/ha,8.0
same,"Postemergence herbicidal rating, IPOHE",[1]; rate 0.0620 kg/ha,9.0
same,"Postemergence herbicidal rating, ECHCG",[2]; rate 0.0320 kg/ha,2.0
same,"Postemergence herbicidal rating, ECHCG",[2]; rate 0.0620 kg/ha,3.0
same,"Postemergence herbicidal rating, SETVI",[3]; rate 0.0320 kg/ha,4.0
same,"Postemergence herbicidal rating, SETVI",[3]; rate 0.0620 kg/ha,6.5
same,"Postemergence herbicidal rating, GLXMAW",[4]; rate 0.0320 kg/ha,8.3
same,"Postemergence herbicidal rating, GLXMAW",[4]; rate 0.0620 kg/ha,8.0
same,"Postemergence herbicidal rating, ORYSAT",[5]; rate 0.0320 kg/ha,3.3
same,"Postemergence herbicidal rating, ORYSAT",[5]; rate 0.0620 kg/ha,3.5
same,"Postemergence herbicidal rating, TRZAWR",[6]; rate 0.0320 kg/ha,4.0
same,"Postemergence herbicidal rating, TRZAWR",[6]; rate 0.0620 kg/ha,4.3
same,"Postemergence herbicidal rating, ZEAMX",[7]; rate 0.0320 kg/ha,5.3
same,"Postemergence herbicidal rating, ZEAMX",[7]; rate 0.0620 kg/ha,5.3
same,ABUTH preemergence herbicidal rating,[8]; Rate 0.0620 kg/ha,7.7
same,ABUTH preemergence herbicidal rating,[8]; Rate 0.1250 kg/ha,9.0
same,ABUTH preemergence herbicidal rating,[8]; Rate 0.2500 kg/ha,9.0
same,AMBEL preemergence herbicidal rating,[9]; Rate 0.0620 kg/ha,6.7
same,AMBEL preemergence herbicidal rating,[9]; Rate 0.1250 kg/ha,9.0
same,AMBEL preemergence herbicidal rating,[9]; Rate 0.2500 kg/ha,9.0
same,CASOB preemergence herbicidal rating,[10]; Rate 0.0620 kg/ha,4.7
same,CASOB preemergence herbicidal rating,[10]; Rate 0.1250 kg/ha,5.7
same,CASOB preemergence herbicidal rating,[10]; Rate 0.2500 kg/ha,8.3
same,CHEAL preemergence herbicidal rating,[11]; Rate 0.0620 kg/ha,9.0
same,CHEAL preemergence herbicidal rating,[11]; Rate 0.1250 kg/ha,9.0
same,CHEAL preemergence herbicidal rating,[11]; Rate 0.2500 kg/ha,9.0
same,GALAP preemergence herbicidal rating,[12]; Rate 0.0620 kg/ha,0.5
same,GALAP preemergence herbicidal rating,[12]; Rate 0.1250 kg/ha,6.0
same,GALAP preemergence herbicidal rating,[12]; Rate 0.2500 kg/ha,9.0
same,ECHCG preemergence herbicidal rating,[13]; Rate 0.0620 kg/ha,9.0
same,ECHCG preemergence herbicidal rating,[13]; Rate 0.1250 kg/ha,9.0
same,ECHCG preemergence herbicidal rating,[13]; Rate 0.2500 kg/ha,9.0
same,SETVI preemergence herbicidal rating,[14]; Rate 0.0620 kg/ha,9.0
same,SETVI preemergence herbicidal rating,[14]; Rate 0.1250 kg/ha,9.0
same,SETVI preemergence herbicidal rating,[14]; Rate 0.2500 kg/ha,9.0
same,ORYSAT preemergence herbicidal rating,[15]; Rate 0.0620 kg/ha,5.3
same,ORYSAT preemergence herbicidal rating,[15]; Rate 0.1250 kg/ha,7.0
same,ORYSAT preemergence herbicidal rating,[15]; Rate 0.2500 kg/ha,8.0
same,TRZAWR preemergence herbicidal rating,[16]; Rate 0.0620 kg/ha,5.5
same,TRZAWR preemergence herbicidal rating,[16]; Rate 0.1250 kg/ha,8.0
same,TRZAWR preemergence herbicidal rating,[16]; Rate 0.2500 kg/ha,8.5
same,"herbicidal rating, ECHORC",[17]; rate 0.0080 kg/ha,2.0
same,"herbicidal rating, ECHORC",[17]; rate 0.0320 kg/ha,8.0
same,"herbicidal rating, ECHORC",[17]; rate 0.1250 kg/ha,9.0
same,"herbicidal rating, CYPSE",[18]; rate 0.0080 kg/ha,0.0
same,"herbicidal rating, CYPSE",[18]; rate 0.0320 kg/ha,0.0
same,"herbicidal rating, CYPSE",[18]; rate 0.1250 kg/ha,6.5
same,"herbicidal rating, MOOVA",[19]; rate 0.0080 kg/ha,4.0
same,"herbicidal rating, MOOVA",[19]; rate 0.0320 kg/ha,9.0
same,"herbicidal rating, MOOVA",[19]; rate 0.1250 kg/ha,9.0

# Reference: US6706663B2, “Herbicidal 3-heterocyclic substituted benzisothiazole and benzisoxazole compounds” (Wyeth, priority 2000, dated 2004)
